Reference: patent US5523321A, “Prostacyclins, their analogs or prostaglandins and thromboxane antagonists for treatment of thrombotic and thromboembolic syndromes” (Schering Aktiengeselleschaft, priority 1985, dated 1996)
Read-outs that look alike come from different tables or passages of the source.

Tests used:
[1] = test system: 2nd wave of aggregation induced by ADP (human PRP); test: Thrombocyte function in vitro: 2nd wave of aggregation by ADP (human PRP); format: cell-based; settings: for % Inhibition (2nd wave of aggregation): 0.5×10^-6 M ADP; for IC50: human PRP, stimulant ADP
Protocol: (§1) 1. Thrombocyte Function In Vitro (Human PRP)
(§2) BM 13 177 (in the text, BM) and Iloprost are tested in their action on thrombocyte aggregation and thrombocyte shape change against stimulants U 46 619 (9,11-dideoxy,9alpha-11alpha-methanoepoxy PGF2alpha, stable TXA2 agonist) and ADP and the IC50 values are determined. Then in several independent tests the action of a combination of the two substances on the aggregation (U 46 619 and ADP) in various concentrations is tested; especially the combination of low dosages and of dosages of the two substances in the range of the IC50 values is tested.
(§3) Platelet aggregation and shape change are measured as light-optical phenomena in stimulated PRP (platelet rich plasma) samples. In this case, the shape change is detected as the density increase of the sample by transition of the discoid rest shape of the platelet into a spherozytic shape with formation of pseudopodlike membrane formations and represented on a recorder. The aggregation is photometrically detected as density […] by clumping and "precipitation" of platelet aggregates and represented on a recorder.
Example 3: 2nd wave of aggregation by 0.5×10^-6 M ADP

[2] = test system: intravascular thrombocyte aggregation (collagen-induced thrombocytopenia); test: Intravascular thrombocyte aggregation on anesthetized rats (collagen-induced thrombocytopenia); format: in vivo
From the text: 2. Intravascular Thrombocyte Aggregation on Anesthetized Rats
The influence of the intravascular thrombocyte aggregation is examined on urethane anesthetized rats.
Collagen (100 micrograms/kg i.v. bolus) causes transitory thrombocytopenias (a transient loss of blood platelet concentration), measured by continuous taking of blood from the A. carotis (50 microliter/min) and thrombocyte counting in the Technicon Autocounter. The change of the collagen-induced thrombocytopenia (% of loss) in comparison with the initial value (=2nd collagen injection) serves as a measurement for the inhibition of the intravascular platelet aggregation.

[3] = test system: mesenteric arteriole thrombosis (topical ADP); test: Mesenteric arteriole thrombosis on anesthetized guinea pigs; format: in vivo
Protocol: 3. Mesenteric Arteriole Thrombosis on Anesthetized Guinea Pigs
A mesenteric loop for vital microscopy is prepared on anesthetized guinea pigs. After electrical lesion of an arteriole, under controlled conditions and after substance application, ADP is applied topically until finding of a thrombogenic dose (occlusion by platelet thrombus).
Parameters: increasing of the thrombogenic ADP concentration vs. initial value; i.v. infusion of Iloprost, i.v. injection of BM 13 177.

[4] = Blood pressure of spontaneously hypertonic (SH) rats; settings: Iloprost 0.3 microgram/kg/min (threshold dose), awake SH rats
[5] = test system: platelet aggregation induced by U 46 619 (human PRP); test: Thrombocyte function in vitro: aggregation by U 46 619 (human PRP); format: cell-based
Protocol: as §1, §2, §3

[6] = test system: platelet shape change induced by U 46 619 (human PRP); test: Thrombocyte function in vitro: shape change by U 46 619 (human PRP); format: cell-based; settings: for IC50: human PRP, stimulant U 46 619
Protocol: as §1, §2, §3
Example 2: Shape change by 50 ng/ml U 46 619

jugular vein thrombosis = test: Jugular vein thrombosis on anesthetized rats; format: in vivo
Protocol: 4. Jugular Vein Thrombosis on Anesthetized Rats
By stressing of the jugular vein of rats anesthetized with urethane with a metal punch cooled to -15° C. (200 g, 2 min) the vessel is predamaged. The thrombus grown within 3 hours on this site is quantified (Hb content wet weight) by determinations of its Hb content (difference damaged-undamaged vessel segment).
The infusion of the test substances begins 15 min before damaging the vein and is continued until the end of the test.

CC#CCC(C)[C@H](O)/C=C/[C@@H]1[C@H]2C/C(=C/CCCC(=O)O)C[C@H]2C[C@H]1O (stereo partly shown) [Iloprost]
% Inhibition (2nd wave of aggregation) ([1]; 0.1 ng/ml Iloprost): no inhibition | IC50 ([1]; Iloprost): 0.26 to 0.65 nM | inhibition of collagen-induced thrombocytopenia (in words) ([2]; Iloprost 0.1-0.33-1.0 micrograms/kg/min): inhibits the collagen-induced thrombocytopenia, depending on the dose | increase of thrombogenic ADP concentration (factor) ([3]; Iloprost 0.1 microgram/kg/min i.v. (threshold dose)): 2.8 | reduction of diastolic blood pressure [4]: 20% | inhibition at 0.0001 µg/mL ([5]; Homo sapiens, 0.1 ng/ml Iloprost, 100 ng/ml U 46 619): 2% | IC50 ([5]; Iloprost, human PRP, stimulant U 46 619, read-out: IC50 for the aggregation inhibition): 1.3 to 2.6 nM | % Inhibition (shape change) ([6]; 0.1 ng/ml Iloprost, 50 ng/ml U 46 619): no inhibition | IC50 ([6]; Platelet, Iloprost, read-out: IC50 for the shape change inhibition): 0.52 to 1.3 nM | antithrombotic effect, Hb content of thrombi (in words) (jugular vein thrombosis; Iloprost 30 ng/kg/min i.v., individual dose): not significantly effective

O=C(O)COc1ccc(CCNS(=O)(=O)c2ccccc2)cc1 [BM 13 177, 4-[2-(benzenesulfonamido)-ethyl]-phenoxyacetic acid]
% Inhibition (2nd wave of aggregation) ([1]; 0.165 microM BM 13 177): no inhibition | IC50 ([1]; BM 13 177): 330 to 660 nM | inhibition of collagen-induced thrombocytopenia ([2]; BM 13 177 0.5 mg/kg/min (lowest dosage), MW±SE): about 27±6% | platelet inhibition in vivo ([2]; BM 13 177 2 mg/kg i.v. infusion): 27% | inhibition of collagen-induced thrombocytopenia on raising the dosage (in words) ([2]; BM 13 177 1.0-2.0 mg/kg/min): cannot be increased by raising the dosage | increase of thrombogenic ADP concentration (factor) ([3]; BM 13 177 25 mg/kg i.v., significant): ~4 | IC50 ([5]; BM 13 177, human PRP, stimulant U 46 619, read-out: IC50 for the aggregation): 1650 to 6600 nM | inhibition at 0.66 µM ([5]; Homo sapiens, 0.66 microM BM 13 177, 100 ng/ml U 46 619): 16% | inhibition at 0.66 µM ([6]; Homo sapiens, Platelet, 0.66 microM BM 13 177, 50 ng/ml U 46 619): 28% | IC50 ([6]; Platelet, BM 13 177, read-out: IC50 for the shape change): 1650 to 3300 nM | antithrombotic effect, Hb content of thrombi (in words) (jugular vein thrombosis; BM 13 177 20 mg/kg i.v. bolus + 50 micrograms/kg/min i.v., monotherapy): ineffective | antithrombotic effect (in words) (jugular vein thrombosis; BM 13 177 as monotherapy): not antithrombotically effective
